Source: the METLIN SMRT retention time set (Domingo-Almenara et al. 2019)

Experiment: gradient 5% acetonitrile 3 min, to 50% in 2 min, to 85% in 15 min, held 3 min, 100 µL/min
Details: column: Zorbax Extend-C18 2.1 x 50 mm; eluents: water / acetonitrile, 0.1% formic acid
Method in brief: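 The mobile phases were water and acetonitrile, each with 0.1% formic acid, pumped at 100 μL/min through a Zorbax Extend-C18 column (2.1 × 50 mm, 1.8 μm). Pure standards were injected as mixtures of ~100 molecules and detected by a quadrupole time-of-flight mass spectrometer in positive and negative ionization mode. Retention time came from computationally picked adduct peaks, each inspected by hand.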

| RP-LC retention time [s] | SMILES |
| --- | --- |
| 955 | COc1cccc(Nc2nc(C)c(C(=O)Nc3ccc(F)cc3F)s2)c1 |
| 846 | COC(=O)c1ccc(-c2nc3cnccn3c2Nc2cccc(OC)c2)cc1 |
| 580 | CNCCCNCc1ccc(-c2ccc(F)c(Cl)c2)o1 |
| 896 | Cc1nc(-c2noc(-c3ccncc3)n2)cn1CC(=O)NC1CCCCC1 |
| 749 | O=C(c1ccnc(-c2cccs2)c1)N1CCN(c2ncccn2)CC1 |
| 1140 | O=C(Cn1cccc1-c1nc(-c2ccc3c(c2)OCO3)no1)Nc1ccccc1 |
| 692 | COc1ccc(Nc2nc(N)nc(CSc3nnc4sc5ccccc5n34)n2)cc1 |
| 707 | N[C@@H]1CCCCN(c2c(F)cc3c(=O)c(C(=O)O)cn(C4CC4)c3c2Cl)C1 |
| 600 | CC1=C(c2ccc(C)cc2)S(=O)(=O)N=C1N1CCCN(C(=O)C2CCCCC2)CC1 |
| 1020 | Cc1cccc(NC(=O)C2CCN(S(C)(=O)=O)c3cc(Cl)ccc3O2)c1 (stereo unspecified) |
| 907 | COc1ccc(-c2noc(C3CCCN3C(=O)c3ccccc3)n2)cc1 (stereo unspecified) |
| 584 | Cc1nc2c(c(Nc3cc(C(=O)O)ccc3C)n1)CCC2 |
| 652 | O=C(CCc1c(-c2ccccc2)nc2ccccn12)NCc1ccccc1F |
| 707 | CCCC(=O)Nc1ccc2c(c1)CN(C(=O)c1ccccc1Cl)C(C(=O)N(C)C)C2 (stereo unspecified) |
| 601 | CCc1nc2cc(N3CCCC(C(=O)NCCN4CCCC4)C3)cnc2nc1CC (stereo unspecified) |
| 1120 | CCC1CCC(c2nnc(-c3ccc([N+](=O)[O-])cc3)o2)CC1 (stereo unspecified) |
| 690 | Cc1nn(C(C)C(=O)NCCCN2CCc3ccccc3C2)c(=O)c2c(C)n(-c3ccccc3)nc12 (stereo unspecified) |
| 735 | Cc1ccc(NC(=O)C2CCc3nc(N4CCOCC4)ncc3C2)cc1F (stereo unspecified) |
| 844 | COc1cccc(NS(=O)(=O)c2cc(-c3nc(C)c(C(=O)N4CCCC4)s3)cs2)c1 |
| 946 | CCn1cc(-c2nc(C)c(C(=O)NCc3ccccn3)s2)c2cccnc21 |
| 1100 | O=C1COc2ccccc2N1Cc1nc(-c2ccc(OC(F)(F)F)cc2)no1 |
| 1230 | CCOc1ccc(-c2csc(Cc3nc(-c4ccccc4)no3)n2)cc1 |
| 582 | Cc1cc(C(=O)NCCN2CCOCC2)c2cc(Br)ccc2n1 |

Second part, the compound before the results:

| SMILES | RP-LC retention time [s] |
| --- | --- |
| CCOc1ccc(-n2cc(C(=O)O)nn2)cc1 | 686 |
| CCC(=O)N1CCc2cc(-c3ccc(C(=O)N4CCC(C(N)=O)CC4)cc3)ccc21 | 667 |
| CC(=O)c1cccc(NC(=O)c2nc(N(C)C)c3c(C)cc(C)nc3n2)c1 | 564 |
| COc1ccc(Cl)cc1C(=O)NCC1(O)CCOCC1 | 622 |
| COc1ccc(Cn2nnc(C(=O)O)c2C)cc1F | 645 |
| CC(C)NC(=O)N1CCCC1c1nc(-c2cccc(C(F)(F)F)c2)no1 (stereo unspecified) | 902 |
| COc1cccc(N2CCN(C(=O)c3cn4ccccc4n3)CC2)c1 | 644 |
| Cc1ccc(NC(=O)CN2C(=O)CCc3cc(S(=O)(=O)N4CCCCC4C)ccc32)cc1 (stereo unspecified) | 797 |
| Cc1ccc(-n2nnc(-c3nc(C)c(C(=O)N4CCC(C(N)=O)CC4)s3)c2C)cc1C | 742 |
| O=C(c1cc(S(=O)(=O)N2CCCC(C(=O)N3CCOCC3)C2)c[nH]1)N1CCCC1 (stereo unspecified) | 638 |
| COc1cc(NS(=O)(=O)c2ccc(NC(=O)c3ccc(Cl)cc3)cc2)nc(OC)n1 | 868 |
| O=C(CCCn1nc(-c2ccc(F)cc2)ccc1=O)Nc1nc2ccccc2[nH]1 | 584 |
| COc1ccc(C(=O)NCc2ccccc2OC(F)(F)F)nn1 | 840 |
| CCN(CC)C(=O)c1ccc2c(c1)N(CC(=O)NC1CCCCC1)C(=O)CS2 | 761 |
| O=C(Nc1nc2c(s1)CN(S(=O)(=O)/C=C/c1ccccc1)CC2)c1cnccn1 | 780 |
| Cc1cccc(Cn2c(=O)n(CCNC(=O)C(C)C)c3ncccc32)c1 | 769 |
| CC(C)(C)NC(=O)N1CCC(CNC(=O)C(=O)Nc2cccc(N3CCCC3=O)c2)CC1 | 683 |
| CCOc1nc2ccccc2nc1N1CCCC(C(=O)Nc2ccccc2OC)C1 (stereo unspecified) | 1250 |
| COCCCNc1ncc(C(=O)O)c(-c2cccc(OC)c2)n1 | 668 |
| CCOc1ccc(CN(C(=O)Cc2coc3ccc(CC)cc23)C2CCS(=O)(=O)C2)cc1 (stereo unspecified) | 1050 |
| CC(=O)Oc1ccc(C2=NN(C(C)=O)C(c3ccc(F)cc3)O2)c(OC(C)=O)c1 (stereo unspecified) | 936 |
| O=C(COc1ccc(Cl)cc1)Nc1ccc(-c2nnc3n2CCCC3)cc1 | 757 |

| SMILES | RP-LC retention time [s] |
| --- | --- |
| O=C(NC1CCc2ccccc21)C1CCN(Cc2noc(-c3ccc(F)cc3)n2)CC1 (stereo unspecified) | 683 |
| CCCCn1nc2c(S(=O)(=O)N3CCOCC3)cccn2c1=O | 702 |
| CCS(=O)(=O)N1CC(=O)N(c2ccc(Cl)cc2)C(C)(C(=O)NCc2ccc(F)cc2)C1 (stereo unspecified) | 840 |
| O=C(Cn1cnc2c(sc3nc(-c4ccccc4)ccc32)c1=O)NCc1ccc(Cl)cc1 | 1070 |
| COCCC1CCN(C(=O)CN(C)C(=O)c2ccsc2)CC1 | 655 |
| O=C(N[C@H]1C[C@@H]2C[C@H]1CN2S(=O)(=O)c1ccc2c(c1)CCC2)c1ccccc1 | 933 |
| COC(=O)c1c2c(nc3ccccc13)CCN(C(=O)Nc1ccccc1)C2 | 743 |
| O=C(O)c1ccccc1C(=O)NCC1COc2ccccc2O1 (stereo unspecified) | 708 |
| O=C(c1cn(Cc2ccccc2)cc2c(=O)n(-c3ccccc3)nc1-2)N1CCc2ccccc21 | 916 |
| COC(=O)N1CCC(c2ccc(OC)cc2)C1 (stereo unspecified) | 758 |
| CSc1ccccc1CN1CCC(CNC(=O)c2ccccc2Br)CC1 | 572 |
| COc1ccc(Cl)cc1-n1c(SCC(=O)N2CCC(C(N)=O)CC2)nc2ccccc2c1=O | 717 |
| O=C(c1cccc(Br)c1)N1CCc2nc(-c3ccccc3)ncc2C1 | 1020 |
| COc1cccc(N2CCCn3c2nc2c3c(=O)n(Cc3c(F)cccc3Cl)c(=O)n2C)c1 | 966 |
| CCCn1c(=O)c(C)nc2cc(-c3noc(-c4ccc5c(c4)OCO5)n3)ccc21 | 1150 |
| O=C(NCc1ccccc1Cl)c1ccc2c(cnn2CC(=O)N2CCCCCC2)c1 | 830 |
| Cc1ccc(Cl)cc1NS(=O)(=O)c1cc(-c2nc(C(C)(C)C)cs2)cs1 | 1330 |
| CCN(CCNC(=O)CCc1cc2cc(C)ccc2[nH]c1=O)Cc1ccccc1 | 648 |
| O=C(Nc1nccs1)C1CCN(Cc2noc(-c3ccc(F)cc3)n2)CC1 | 643 |
| O=C(C1CCN(c2cncnc2N2CCCCC2)CC1)N1CCN(C2CCCCC2)CC1 | 557 |
| Cc1cccc(CNC(=O)C2(C)Cn3cnc(C(=O)NC4CC4)c3C(=O)N2C2CC2)c1 (stereo unspecified) | 706 |
